Measured values published in PMC6637216 (BioImpacts : BI, 2019).
Several values for one entry are separate records, joined by “and”; a condition that tells them apart may be missing. Identical values can stand only once.

Assays:
[1] = target: T1, AChE from Electrophorus electricus (electric eel) (Electrophorus electricus, UniProt O42275); test: Ellman AChE inhibition and kinetics in HSA matrix; type: biochemical; conditions: for ΔrIC50, relative decrease in inhibition potency in HSA versus buffer: (IC50(HSA)-IC50(Buffer))/IC50(Buffer)x100; for Vmax / α / α': HSA medium (in parentheses); for nH (Hill coefficient): HSA medium, values in parentheses
[2] = target: T1, AChE from Electrophorus electricus (electric eel); test: Ellman colorimetric AChE inhibition and kinetics in aqueous phosphate buffer; type: biochemical; conditions: for nH (Hill coefficient) / Vmax / α / α': aqueous buffer
[3] = target: AChE (Electrophorus electricus, UniProt O42275); test: ThT displacement from AChE; type: binding; conditions: quenching of ThT-AChE fluorescence, 0.1 M phosphate buffer pH 8.0
AChE, sequence (O42275 24-633): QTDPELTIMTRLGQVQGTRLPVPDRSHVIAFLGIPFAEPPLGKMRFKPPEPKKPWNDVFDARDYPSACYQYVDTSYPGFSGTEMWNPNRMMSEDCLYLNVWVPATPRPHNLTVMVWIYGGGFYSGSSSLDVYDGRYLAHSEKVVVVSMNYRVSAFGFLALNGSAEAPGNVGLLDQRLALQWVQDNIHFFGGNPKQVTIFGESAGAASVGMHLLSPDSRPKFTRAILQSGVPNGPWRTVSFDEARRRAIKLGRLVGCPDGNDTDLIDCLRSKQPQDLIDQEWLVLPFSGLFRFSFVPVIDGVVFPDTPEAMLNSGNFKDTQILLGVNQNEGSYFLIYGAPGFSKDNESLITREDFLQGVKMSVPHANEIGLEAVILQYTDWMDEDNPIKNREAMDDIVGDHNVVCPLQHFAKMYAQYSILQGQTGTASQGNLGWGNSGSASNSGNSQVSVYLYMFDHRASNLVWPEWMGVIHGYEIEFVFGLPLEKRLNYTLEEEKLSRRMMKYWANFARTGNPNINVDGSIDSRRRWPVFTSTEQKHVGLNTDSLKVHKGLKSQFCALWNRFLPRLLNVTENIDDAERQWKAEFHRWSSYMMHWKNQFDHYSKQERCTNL

T1 sequence (O42275 24-633): as above

Row | SMILES | IC50 [1] [nM] | ΔrIC50, relative decrease in inhibition potency in HSA versus buffer [1] | Vmax ([1]; inhibitor 5 nM) [nM/s] | α ([1]; inhibitor 5 nM) | α' ([1]; inhibitor 5 nM) | Vmax ([1]; inhibitor 10 nM) [nM/s] | α ([1]; inhibitor 10 nM) | α' ([1]; inhibitor 10 nM) | nH (Hill coefficient) [1] | IC50 [2] [nM] | nH (Hill coefficient) [2] | Vmax ([2]; inhibitor 5 nM) [nM/s] | α ([2]; inhibitor 5 nM) | α' ([2]; inhibitor 5 nM) | Vmax ([2]; inhibitor 10 nM) [nM/s] | α ([2]; inhibitor 10 nM) | α' ([2]; inhibitor 10 nM) | KSV (Stern-Volmer constant) [3] [M⁻¹]
1 | N#Cc1coc2ccccc2c1=O [CyC, 3-cyanochromone] | 113 | ~ 32% and 32% | 730 ± 17 | 1.1 | 1.1 | 671 ± 30 | 1.2 | 1.2 | 1.89±0.17 | 85.1 ± 6.7 | 1.51 ± 0.1 | 631 ± 21 | 1.3 | 1.3 | 538 ± 31 | 1.5 | 1.5 | 370000
2 | Cc1cc(=O)c2ccc(N)cc2o1 [AMC, 7-amino-2-methylchromone] | 115 | ~ 5% and 5% | 711 ± 47 | 1.2 (1.2) | 1.2 (1.2) | 557 ± 39 | 1.5 | 1.4 (1.4) | 1.52±0.1 | 103 ± 11.9 | 1.45 ± 0.1 | 670 ± 26 | 1.2 (1.2) | 1.2 (1.2) | 560 ± 39 | 1.4 | 1.4 (1.4) | 230000
